The target in one series is T1, Oatp1b2 (Mus musculus, UniProt Q9JJL3).
T1 sequence (Q9JJL3 1-689): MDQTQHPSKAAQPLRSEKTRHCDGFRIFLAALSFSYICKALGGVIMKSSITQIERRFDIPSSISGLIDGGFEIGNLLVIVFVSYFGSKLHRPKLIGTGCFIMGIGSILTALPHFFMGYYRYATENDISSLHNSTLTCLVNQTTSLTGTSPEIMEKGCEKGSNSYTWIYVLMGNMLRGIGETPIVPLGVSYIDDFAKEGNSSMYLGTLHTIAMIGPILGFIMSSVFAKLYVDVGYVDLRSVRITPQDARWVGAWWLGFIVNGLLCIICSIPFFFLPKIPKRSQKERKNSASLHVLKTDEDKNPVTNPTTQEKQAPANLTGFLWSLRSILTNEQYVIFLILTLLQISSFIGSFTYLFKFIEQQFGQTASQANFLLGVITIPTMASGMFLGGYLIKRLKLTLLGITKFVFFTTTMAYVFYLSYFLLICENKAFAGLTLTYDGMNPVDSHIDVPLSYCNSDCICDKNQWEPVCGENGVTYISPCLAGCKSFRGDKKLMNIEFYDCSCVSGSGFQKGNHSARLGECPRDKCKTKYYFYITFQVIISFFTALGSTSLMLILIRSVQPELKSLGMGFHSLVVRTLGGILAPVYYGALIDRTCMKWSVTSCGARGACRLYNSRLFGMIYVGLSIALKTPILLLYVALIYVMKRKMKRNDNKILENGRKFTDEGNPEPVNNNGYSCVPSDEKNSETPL
The experiment in a line: Uptake in HEK293 cells overexpressing Oatp1b2. Type of series: cell-based. On the set-up: from tissue; hepatic transporter in vivo. The note with it: HEK293 cells overexpressing Oatp1b2, 5 min uptake, vs empty vector. Here is the method: The generation of human embryonic kidney (HEK293) cells (ATCC) engineered to overexpress OATP1B1, Oatp1b2, or empty vector, the cell culture conditions, and general details of uptake studies have been reported in detail elsewhere. Briefly, cells were grown to 90% confluence on poly-lysine coated multi-well plates. […] The pre-treatment medium was rinsed off with warm 1× PBS followed by the addition of the test compounds for an incubation period of 5 min. After incubation, transport was halted by aspirating the medium and rinsing the cells three times with ice-cold 1× PBS. After lysing cells with 0.1 N HCl, and subsequent adding methanol, 20 μL aliquots were mixed with 60 μL of acetonitrile containing relevant internal standards. After vortex mixing, the mixtures were centrifuged, and the supernatants were used for quantitative analysis by LC-MS/MS. Drug uptake results were normalized to total protein content and then to data obtained in cells carrying an empty vector plasmid, which was set to 100%.

The subject of the next series is Oatp1a/1b. As to the kind of experiment: Baseline plasma biomarker levels in Oatp1a/1b(−/−) cluster-knockout vs wild-type mice. The class given is in vivo, mouse. The note with it: n = 6–10 per group. As for the experimental part: (§1) Plasma concentrations of levels of CDCA-24G and glycochenodeoxycholate-3-sulfate (GCDCA-S) were determined using LC-MS/MS using a Vanquish UHPLC coupled with a Quantiva triple quadrupole mass spectrometer (Thermo Fisher Scientific, Waltham, MA, USA). An Accucore aQ column (50 × 2.1 mm, dp = 2.6 μm; Thermo Fisher Scientific) was protected by a C18 AQUASIL guard cartridge (2.1 mm × 10 mm, dp = 3 μm; Thermo Fisher Scientific). The injection volume of sample was 5.0 μL. The temperature of the autosampler rack was 4 °C, and the temperature of the column was maintained at 20 °C. The mobile phase was composed of solvent A (2 mmol ammonium acetate in water) and solvent B (100% methanol), and the total run time was 4.6 min. The gradient conditions were as follows: 0–0.5 min, 45% B; 0.5–2.0 min, 45 to 90%, 2.0–4.0 min, 90% B; 4.0–4.6 min, 45% B, delivered at a flow rate of 0.4 mL/min. The MS assay setting with the positive voltage applied to the ESI capillary was set at 3791 V, and the capillary temperatures was 335 °C with a vaporizer temperature of 350 °C. Argon was used as the collision gas at a pressure of 1.5 mTorr. Precursor molecular ions, and product ions were recorded for the confirmation and detection of GCDCA-S (528.4 > 448.3) and CDCA-24G (567.4 > 391.1), using [^2H5]-GCDCA-S (535.5 > 453.3) and [^2H5]-CDCA-24G (572.5 > 396.1) as respective internal standards. The lower limit of quantitation (LLOQ) for both analytes was determined to be 0.5 ng/mL. […]
Plasma concentrations of coproporphyrin I (CP-I) and III (CP-III) were determined similarly by LC-MS/MS. […] Precursor molecular ions and product ions were recorded for confirmation and detection of CP-I (655.4 > 596.4) and CP-III (655.4 > 596.3), using [^2H4]-CP-III (659.4 > 600.3) as the internal standard for both analytes. The LLOQ for both analytes were determined to be 1 ng/mL, and the within-run and between-run precisions as well as the accuracy were always within acceptable limits.

Another series relates to human OATP1B3. As to the kind of experiment: Baseline plasma CDCA-24G in Oatp1a/1b(−/−) mice with transgenic hepatic expression of OATP1B3 (OATP1B3(tg)). Type of series: in vivo. The note with it: range stated jointly for OATP1B1(tg) and OATP1B3(tg). Here is the method:
as §1, with “The MS assay setting with the positive voltage applied to the ESI capillary was set at 3791 V, and the capillary temperatures was 335 °C with a vaporizer temperature of 350 °C. Argon was used as the collision gas at a pressure of 1.5 mTorr.” left out

Several values for one entry are separate records, joined by “and”; a condition that tells them apart may be missing. Identical values can stand only once.

Turning to `C[C@H](CCC(=O)O[C@@H]1O[C@H](C(=O)O)[C@@H](O)[C@H](O)[C@H]1O)[C@H]1CC[C@H]2[C@@H]3[C@H](O)C[C@@H]4C[C@H](O)CC[C@]4(C)[C@H]3CC[C@]12C` [CDCA-24G, chenodeoxycholate-24-glucuronide], the “Transport by murine OATP1B-type transporter” value at Oatp1b2 is given as “efficiently transported”. Besides, the “Plasma concentration of CDCA-24G in Oatp1a/1b(−/−) mice relative to wild type” value with Oatp1a/1b was 83 fold and > 80 fold. In addition, in the series on human OATP1B3, the “Baseline CDCA-24G level, fold lower than in Oatp1a/1b(−/−) mice” value is reported as 5- to 7 fold.
